# Experimental data: publication PMC10683023, “Targeting Glial Cells by Organic Anion-Transporting Polypeptide 1C1 (OATP1C1)-Utilizing L-Thyroxine-Derived Prodrugs” (Journal of Medicinal Chemistry, 2023)
# Tested on: mouse primary astrocytes
# Experiment: Concentration-dependent cellular uptake into mouse primary astrocytes
# Format: cell-based
# Details: 5–400 μM, 30 min, 37 °C
# Experimental: The mouse primary astrocytes were isolated from neonatal pups (P0-2) of wild-type mice (C57BL/6JOlaHsd) as previously described, in compliance with the European Commission Directive 2010/63/EU and approved by the Institutional Animal Care and Use Committee of the University of Eastern Finland (Animal Usage Plan numbers: EKS-006-2019).[37] Neonatal pups were decapitated, and their brains were collected in an ice-cold HBSS buffer. After tissue dissociation and washing, cells were plated on poly-L-lysine-coated flasks and cultured in DMEM supplemented with FBS, L-glutamine, and penicillin/streptomycin (50 μg/mL) for 24 h. Debris and dead cells were removed by DPBS rinsing. After 7 days, microglial cells were removed, and the remaining astrocytic monolayer was collected by trypsinization using 0.05% trypsin-ethylenediaminetetraacetic acid (EDTA) (Gibco), pelleted, and stored at −80 °C for subsequent analysis. For the cell uptake experiments, the astrocytes were seeded on 24-well plates with a density of 10^4 cells/well 3 days before the experiments.
# After removal of the culture medium, U-87MG human glioma cells and mouse primary astrocytes were carefully washed with prewarmed Hank’s balanced salt solution (HBSS) containing 125.0 mM NaCl (or choline chloride in Na^+ free conditions), 4.8 mM KCl, 1.2 mM MgSO4, 1.2 mM KH2PO4, 1.3 mM CaCl2, 5.6 mM glucose, and 25.0 mM 4-(2-hydroxyethyl)piperazine-1-ethanesulfonic acid (HEPES) with the pH adjusted to either 7.4 or pH 8.5 with 1 M NaOH (or KOH in sodium-free conditions). In the experiments at lower pH (4.5–6.5), 25.0 mM HEPES was replaced by 2-(N-morpholino) ethanesulfonic acid (MES), and the pH was adjusted to 4.5, 5.5, and 6.5 by 1.0 M NaOH. Preincubation was done with 500 μL of prewarmed HBSS at 37 °C for 10 min before adding the substrate for the uptake experiments. The functionality of OATP1C1 in human glioma U-87MG cells was studied with a known substrate (L-thyroxine, T4) and of oatp1a4, 1a5, and 1a6 in mouse primary astrocytes with [6,7-^3H(N)]-estrone-3-sulfate (ES) by incubating the uptake solution (250 μL in HBSS) consisting of 5–400 μM of the substrate at 37 °C for 30 min. After incubation, the uptake was stopped by adding 500 μL of ice-cold HBSS, and the cells were washed two times with ice-cold HBSS (2 × 500 μL). The cells were then lysed with 500 μL of 0.1 M NaOH (60 min), the lysate was neutralized, and the protein was precipitated with acidic acetonitrile (ACN with 4.8% formic acid). The supernatants were analyzed by the high-performance liquid chromatography (HPLC) methods described below (T4) or by using a liquid scintillation counter (MicroBeta2 counter, PerkinElmer, Waltham, MA) (ES). The concentrations of T4 and ES were calculated from the spiked standard curve and normalized with the protein concentrations. The protein concentrations on each plate were determined as a mean of three samples by Bio-Rad Protein Assay, based on the Bradford dye-binding method, using bovine serum albumin (BSA) as a standard protein and measuring the absorbance (595 nm) by a multiplate reader (EnVision, PerkinElmer, Inc., Waltham, MA). The OATP-mediated uptake was confirmed by changing the pH of the uptake buffer in the absence of sodium ions, and in the case of OATP1C1 in human U-87MG cells, the uptake of T4 (100 μM) was studied in the presence of competing OATP1C1-ligands, diclofenac and flufenamic acid (100 μM), and in the case of oatp1a4/1a5/1a6 in mouse primary astrocytes, the uptake of ES (100 μM) was studied in the presence of competing OATO1A2-ligand, naringin (100 μM).
# Cellular uptake of prodrugs 1–8 was studied as described for L-thyroxine above by adding compounds at a concentration of 5–400 μM in prewarmed HBSS buffer (250 μL) on the cell layer and incubating at 37 °C for 30 min (uptake was linear with all compounds up to 30 min). Subsequently, the cells were washed three times with ice-cold HBSS and lysed with 500 μL of 0.1 M NaOH (60 min). […]
Compound,Km [µM],"Vmax, cellular uptake, astrocytes [nmol/min/mg]"
"CC(C(=O)Oc1c(I)cc(Oc2c(I)cc(C[C@H](N)C(=O)O)cc2I)cc1I)c1cccc(C(=O)c2ccccc2)c1 (mixture of isomers) [Prodrug 2, (2S)-2-Amino-3-(4-(4-((2-(3-benzoylphenyl)propanoyl)oxy)-3,5-diiodophenoxy)-3,5-diiodophenyl)propanoic acid]",123 ± 21,5.5 ± 0.4
"CC(C(=O)Oc1c(I)cc(C[C@H](N)C(=O)O)cc1I)c1ccc(-c2ccccc2)c(F)c1 (mixture of isomers) [Prodrug 7, (2S)-2-Amino-3-(4-((2-(2-fluoro-[1,1′-biphenyl]-4-yl)propanoyl)oxy)-3,5-diiodophenyl)propanoic acid]",360 ± 61,10.3 ± 1.1
"CC(C(=O)Oc1c(I)cc(Oc2c(I)cc(C[C@H](N)C(=O)O)cc2I)cc1I)c1ccc(-c2ccccc2)c(F)c1 (mixture of isomers) [Prodrug 8, (2S)-2-Amino-3-(4-(4-((2-(2-fluoro-[1,1′-biphenyl]-4-yl)propanoyl)oxy)-3,5-diiodophenoxy)-3,5-diiodophenyl)propanoic acid]",58 ± 20,3.0 ± 0.4
"N[C@@H](Cc1cc(I)c(OC(=O)c2ccccc2O)c(I)c1)C(=O)O [Prodrug 3, (S)-2-Amino-3-(4-((2-hydroxybenzoyl)oxy)-3,5-diiodophenyl)propanoic acid]",685 ± 97,13.0 ± 1.3
"N[C@@H](Cc1cc(I)c(Oc2cc(I)c(OC(=O)c3ccccc3O)c(I)c2)c(I)c1)C(=O)O [Prodrug 4, (S)-2-Amino-3-(4-(4-((2-hydroxybenzoyl)oxy)-3,5-diiodophenoxy)-3,5-diiodophenyl)propanoic acid]",86 ± 32,5.5 ± 0.8
